Experimental data taken from ChEMBL document CHEMBL3045431, “Stability of DNA upon interaction with dimethyltin dichloride” (Med Chem Res, 2007).
Activity calls are given as the source filed them. The rule behind the calls is not given here.

How the values were obtained:
[1] = Binding affinity to DNA assessed as dissociation constant at < 2 mM by isothermal spectrophotometric titration method
DNA [2] = experiment: Thermal stabilization of Bos taurus (calf) thymus DNA assessed as change in melting temperature at 2 mM by differential scanning calometric method; assay type: nucleic-acid assay
DNA [3] = experiment: Binding affinity to Bos taurus (calf) thymus DNA at 0.5 mM by isothermal spectrophotometric titration method; assay type: nucleic-acid assay
[4] = Binding affinity to DNA assessed as association constant at < 2 mM by isothermal spectrophotometric titration method
DNA [5] = experiment: Thermal stabilization of Bos taurus (calf) thymus DNA assessed as change in melting temperature at 13.6 mM by differential scanning calometric method; assay type: nucleic-acid assay
DNA [6] = experiment: Binding affinity to Bos taurus (calf) thymus DNA at 2 mM by isothermal spectrophotometric titration method; assay type: nucleic-acid assay
DNA [7] = experiment: Binding affinity to Bos taurus (calf) thymus DNA at 9 mM by isothermal spectrophotometric titration method; assay type: nucleic-acid assay
DNA [8] = experiment: Binding affinity to Bos taurus (calf) thymus DNA at 11 mM by isothermal spectrophotometric titration method; assay type: nucleic-acid assay
DNA [9] = experiment: Binding affinity to Bos taurus (calf) thymus DNA at 13.6 mM by isothermal spectrophotometric titration method; assay type: nucleic-acid assay

Substance | Kd [1] [µM] | Activity (DNA [2]) | K (DNA [3]) [×10³ /M] | Ka [4] [×10³ /M] | Tm (DNA [5]) [°C] | K (DNA [6]) [×10³ /M] | K (DNA [7]) [×10³ /M] | K (DNA [8]) [×10³ /M] | K (DNA [9]) [×10³ /M]
DICHLORODIMETHYLSTANNANE | 281 | – | – | – | – | – | – | – | –
[sequence] | – | Active | 3.59 | 3.56 | 70.2 | 3.53 | 0.123 | 0.125 | 0.143
